From ChEMBL document CHEMBL4483862, “Open-source discovery of chemical leads for next-generation chemoprotective antimalarials” (2018)

System: Plasmodium berghei
Assay: Luciferase/luciferin-expressing antifolate-resistant parasites were used to infect a culture of HepG2 cells that were pre-incubated with compounds. Infected hepatocytes emit light due to the luciferase reaction. Assay results are presented as the percent inhibition of light emission compared to control. […]
Assay type: functional
Settings: sporozoite; for IC90: read-out: LUCIFERASE INFECTION ASSAY - IC90
[1] = read-out: LUCIFERASE INFECTION ASSAY - IC50

Row | SMILES | IC90 [µM] | other results
1 | CCC(C)c1ccc(NC(=O)c2ccc[nH]c2=S)cc1 (configuration not stated) | > 10 | IC50 (FFLUC_HILL_SLOPE 16.3, FFLUC_R_SQUARED 0.684, PBLUC_HILL_SLOPE 0.824, PBLUC_R_SQUARED 0.804, read-out: LUCIFERASE INFECTION ASSAY - IC50): 7.03 µM
2 | O=c1cc(CN2CCN(C(c3ccc(F)cc3)c3ccc(F)cc3)CC2)nc2ccc(Cl)cn12 | 9.88 | IC50 (PBLUC_HILL_SLOPE 16, PBLUC_R_SQUARED 0.275, read-out: LUCIFERASE INFECTION ASSAY - IC50): 8.61 µM
3 | CCN(CC)c1ccc(Nc2nc(-c3sc(C)nc3C)cs2)cc1 | > 9.2 | IC50 [1]: > 9.2 µM
4 | Cc1n[n+]2c3c(cnc2s1)CC/C3=C/c1ccccc1 | 9.79 | IC50 (HEPG2TOX_HILL_SLOPE 2.96, HEPG2TOX_R_SQUARED 0.5, PBLUC_HILL_SLOPE 7.3, PBLUC_R_SQUARED 0.698, read-out: LUCIFERASE INFECTION ASSAY - IC50): 7.25 µM
5 | Cc1nc(NCCSc2nccn2C)c2c(-c3ccccc3)csc2n1 | > 10 | IC50 [1]: > 10 µM
6 | O=C(CSCCS(=O)(=O)c1ccc(Cl)cc1)Nc1cc(C(F)(F)F)cc(C(F)(F)F)c1 | > 6.52 | IC50 (FFLUC_HILL_SLOPE 10.6, FFLUC_R_SQUARED 0.485, read-out: LUCIFERASE INFECTION ASSAY - IC50): > 6.52 µM
7 | N#Cc1c(SCc2ccc(Cl)cc2)nc2c(c1-c1cccs1)CCCC2 | > 8.31 | IC50 (FFLUC_HILL_SLOPE 2.42, FFLUC_R_SQUARED 0.441, PBLUC_HILL_SLOPE 1.78, PBLUC_R_SQUARED 0.144, read-out: LUCIFERASE INFECTION ASSAY - IC50): 7.61 µM
8 | Cc1c(C)c(C)c(S(=O)(=O)Nc2ccc3c[nH]nc3c2)c(C)c1C | > 10 | IC50 (HEPG2TOX_HILL_SLOPE 1.73, HEPG2TOX_R_SQUARED 0.711, PBLUC_HILL_SLOPE 1.55, PBLUC_R_SQUARED 0.469, read-out: LUCIFERASE INFECTION ASSAY - IC50): 4.27 µM
9 | O=C(NCCC1=CCCCC1)c1cccc(N2CCCC2=O)c1 | > 10 | IC50 (FFLUC_HILL_SLOPE 0.738, FFLUC_R_SQUARED 0.473, PBLUC_HILL_SLOPE 0.427, PBLUC_R_SQUARED 0.183, read-out: LUCIFERASE INFECTION ASSAY - IC50): > 10 µM
10 | C[C@]12CCC3C(CC[C@]4(O)C[C@@H](O)CC[C@]34/C=N/O)[C@@]1(O)CC[C@@H]2C1=CC(=O)OC1 (some centres not stated) | 0.165 | IC50 (HEPG2TOX_HILL_SLOPE 2.86, HEPG2TOX_R_SQUARED 0.935, PBLUC_HILL_SLOPE 2.2, PBLUC_R_SQUARED 0.866, read-out: LUCIFERASE INFECTION ASSAY - IC50): 0.0609 µM
11 | CNc1ccc2ncc(-c3ccccc3)n2n1 | 13.6 | IC50 (HEPG2TOX_HILL_SLOPE 2.41, HEPG2TOX_R_SQUARED 0.973, PBLUC_HILL_SLOPE 2.77, PBLUC_R_SQUARED 0.442, read-out: LUCIFERASE INFECTION ASSAY - IC50): 6.15 µM
12 | Cc1cc(C(=O)OCC(=O)NC(=O)NC(C)(C)C)c(C)n1-c1ccccc1 | > 10 | IC50 (FFLUC_HILL_SLOPE 0.365, FFLUC_R_SQUARED 0.0382, read-out: LUCIFERASE INFECTION ASSAY - IC50): > 10 µM
13 | CN1/C(=C\C(=O)CSc2nc(N)c3ccsc3n2)C(C)(C)c2ccccc21 | > 10 | IC50 (PBLUC_HILL_SLOPE 1.96, PBLUC_R_SQUARED 0.352, read-out: LUCIFERASE INFECTION ASSAY - IC50): 8.34 µM
14 | COc1ccc(N2CCN(CCCNS(=O)(=O)c3ccc(Cl)cc3C(F)(F)F)CC2)cc1 | > 10 | IC50 (PBLUC_HILL_SLOPE 0.0792, 17.3, PBLUC_R_SQUARED 0.0344, 0.317, read-out: LUCIFERASE INFECTION ASSAY - IC50): 9.67 µM
15 | COc1ccccc1C(=O)NCc1cn(Cc2ccccc2)nc1-c1ccccc1 | > 10 | IC50 (PBLUC_HILL_SLOPE 11.8, PBLUC_R_SQUARED 0.553, read-out: LUCIFERASE INFECTION ASSAY - IC50): 9.21 µM
16 | O=C1CCN(Cc2ccc(Cl)cc2)N1 | > 15.7 | IC50 (PBLUC_HILL_SLOPE 1.7, PBLUC_R_SQUARED 0.276, read-out: LUCIFERASE INFECTION ASSAY - IC50): 14.1 µM
17 | CC(=O)c1c(C)[nH]c(C(=O)CN(C)Cc2ccc(C(C)(C)C)cc2)c1C | > 10 | IC50 [1]: > 10 µM
18 | O=C(O)c1ccc(N=C2C=C(NS(=O)(=O)c3ccc(Cl)cc3)c3ccccc3C2=O)cc1 | > 10 | IC50 [1]: > 10 µM
19 | O=C(CSCc1cn(-c2ccccc2)nc1-c1ccccc1)NC1CCCC1 | > 10 | IC50 (PBLUC_HILL_SLOPE 4.68, PBLUC_R_SQUARED 0.205, read-out: LUCIFERASE INFECTION ASSAY - IC50): 6.9 µM
20 | CCCN1C/C(=C/c2csnn2)C(=O)/C(=C/c2csnn2)C1 | > 10 | IC50 (HEPG2TOX_HILL_SLOPE 13.3, HEPG2TOX_R_SQUARED 0.713, read-out: LUCIFERASE INFECTION ASSAY - IC50): > 10 µM
21 | CC(C)(C)c1cc(C(=O)/C(C#N)=N/Nc2cccc(Cl)c2)no1 | 9.64 | IC50 (HEPG2TOX_HILL_SLOPE 1.6, HEPG2TOX_R_SQUARED 0.978, PBLUC_HILL_SLOPE 25.6, PBLUC_R_SQUARED 0.306, read-out: LUCIFERASE INFECTION ASSAY - IC50): 8.85 µM

Row | SMILES | IC90 [µM] | other results
22 | Cc1ccc(NC2c3ccccc3-c3ccccc32)cc1 | > 10 | IC50 (PBLUC_HILL_SLOPE 2, PBLUC_R_SQUARED 0.71, read-out: LUCIFERASE INFECTION ASSAY - IC50): 6.95 µM
23 | COC(=O)c1sccc1Oc1ccc(C(F)(F)F)cc1NS(=O)(=O)c1cc(C(F)(F)F)cc(C(F)(F)F)c1 | 3.04 | IC50 (HEPG2TOX_HILL_SLOPE 17.5, HEPG2TOX_R_SQUARED 0.823, PBLUC_HILL_SLOPE 4.85, PBLUC_R_SQUARED 0.307, read-out: LUCIFERASE INFECTION ASSAY - IC50): 1.93 µM
24 | Cc1ccc(Sc2ccc(NC(=O)C3CCN(C(=O)c4ccoc4)CC3)cc2)c(C)c1 | 9.64 | IC50 (HEPG2TOX_HILL_SLOPE 3.01, HEPG2TOX_R_SQUARED 0.581, PBLUC_HILL_SLOPE 14.8, 16.7, PBLUC_R_SQUARED 0.181, 0.0620, read-out: LUCIFERASE INFECTION ASSAY - IC50): 9.11 µM
25 | Cc1ccc2nc(NC(=O)c3ccc(C#N)cc3)c(C(=O)NC3CCCCC3)n2c1 | > 8.22 | IC50 (HEPG2TOX_HILL_SLOPE 2.19, HEPG2TOX_R_SQUARED 0.834, PBLUC_HILL_SLOPE 2.97, PBLUC_R_SQUARED 0.239, read-out: LUCIFERASE INFECTION ASSAY - IC50): 4.92 µM
26 | Cc1ccc(-n2ncc(C(=O)OCc3nc(N)nc(N(C)C)n3)c2C(C)C)cc1 | > 10 | IC50 (PBLUC_HILL_SLOPE 2.99, PBLUC_R_SQUARED 0.678, read-out: LUCIFERASE INFECTION ASSAY - IC50): 6.36 µM
27 | Cc1nn(-c2ccc(C(=O)Nc3nc(CN4CCCC4)cs3)cc2)c(C)c1Cl | 7.87 | IC50 (PBLUC_HILL_SLOPE 4.86, PBLUC_R_SQUARED 0.713, read-out: LUCIFERASE INFECTION ASSAY - IC50): 5.01 µM
28 | Cc1ccc(S(=O)(=O)N2Cc3ccccc3C(C)CC23CCCCC3)cc1 (configuration not stated) | > 8.6 | IC50 (PBLUC_HILL_SLOPE 1.1, PBLUC_R_SQUARED 0.205, read-out: LUCIFERASE INFECTION ASSAY - IC50): > 8.6 µM
29 | CNc1snc(C)c1C(=O)N(C)Cc1ccccc1OC(F)(F)F | 0.463 | IC50 (PBLUC_HILL_SLOPE 12.1, PBLUC_R_SQUARED 0.631, read-out: LUCIFERASE INFECTION ASSAY - IC50): 0.386 µM
30 | O=C(Nc1ccc(OC(F)(F)F)cc1)c1c(-c2ccccc2)nnc2ccccc12 | > 8.06 | IC50 (FFLUC_HILL_SLOPE 2.82, FFLUC_R_SQUARED 0.654, HEPG2TOX_HILL_SLOPE 0.161, HEPG2TOX_R_SQUARED 0.349, PBLUC_HILL_SLOPE 0.343, PBLUC_R_SQUARED 0.11, read-out: LUCIFERASE INFECTION ASSAY - IC50): > 8.06 µM
31 | Cc1cc(=O)n2nc(C)c(-c3ccc(F)cc3)c2[nH]1 | > 12.8 | IC50 (PBLUC_HILL_SLOPE 15.8, PBLUC_R_SQUARED 0.105, read-out: LUCIFERASE INFECTION ASSAY - IC50): > 12.8 µM
32 | COC(=O)C1=C(C)NC(C)=C(C(=O)OC)C1c1cc(NC(=O)NC2CCCCC2)ccc1OC(F)F | > 10 | IC50 [1]: > 10 µM
33 | O=C1CN(C(=O)CSC2=N/C(=C/c3ccccc3)C(=O)N2c2ccc(F)cc2)c2ccccc2N1 | > 10 | IC50 [1]: > 10 µM
34 | CN(CC(=O)Nc1ccc(F)c(F)c1F)C(C(=O)Nc1ccc(Cl)c(C(F)(F)F)c1)c1ccccc1 (configuration not stated) | > 10 | IC50 [1]: 6.74 µM
35 | CN(c1ccccc1)c1ccc(/C=N/NC(=O)c2ccc3c(=O)n4c(nc3c2)CCCCC4)cc1 | > 10 | IC50 (PBLUC_HILL_SLOPE 3.8, PBLUC_R_SQUARED 0.483, read-out: LUCIFERASE INFECTION ASSAY - IC50): 6.28 µM
36 | CCCCCc1ccc(-c2nnc(SCC(C)=O)[nH]2)cc1 | > 10.9 | IC50 [1]: > 10.9 µM
37 | COc1cc(NC(=O)N2CCc3nc(Nc4cc(C)cc(C)c4)ncc3C2)cc(OC)c1OC | > 7.12 | IC50 (PBLUC_HILL_SLOPE 3.8, PBLUC_R_SQUARED 0.0984, read-out: LUCIFERASE INFECTION ASSAY - IC50): 4.59 µM
38 | O=C(CSCc1cccs1)Nc1nc(-c2ccccn2)cs1 | 9.38 | IC50 (PBLUC_HILL_SLOPE 22, PBLUC_R_SQUARED 0.337, read-out: LUCIFERASE INFECTION ASSAY - IC50): 8.49 µM
39 | Cc1ccc(CC(=O)NCc2ccc(C#N)cc2)cc1 | 8.45 | IC50 (PBLUC_HILL_SLOPE 3.17, PBLUC_R_SQUARED 0.517, read-out: LUCIFERASE INFECTION ASSAY - IC50): 4.23 µM
40 | CN(c1ccccc1)S(=O)(=O)c1ccc(NC(=O)c2cccs2)cc1 | 8.27 | IC50 (PBLUC_HILL_SLOPE 1.98, PBLUC_R_SQUARED 0.132, read-out: LUCIFERASE INFECTION ASSAY - IC50): 2.73 µM
41 | Cc1ccc2nc(CN3CCCCC3c3nc4ccccc4s3)cn2c1 (configuration not stated) | > 10 | IC50 [1]: > 10 µM
